# According to patent publication US7671176B2, “Opiate receptor polypeptide” (The Research Foundation of SUNY, priority 2001, dated 2010):
# System: mu4 opiate receptor mRNA in mononuclear cells
# Experiment: Real-time RT-PCR of mu4 mRNA expression in treated human mononuclear cells
# Format: cell-based
# Settings: SNAP 1 μM
# Protocol: Human heparinized whole blood cells obtained from volunteer blood donors (Long Island Blood Services; Melville, N.Y.) were immediately separated using the 1-Step Polymorphs (Accurate Chemical and Scientific Corporation, Westbury, N.Y.) gradient medium. Five mL of the heparinized blood was layered over 3.5 mL of polymorphs in a 14 mL round-bottom tube and centrifuged for 35 minutes at 500×g in a swinging-bucket rotor at 18° C. […] In addition, residual red blood cells were lysed using ACK lysing buffer (Current Protocol in Immunology). […] The cells were then treated with SNAP (1 μM), SNAP plus superoxide dismutase (SOD; 100 units/mL) (SIGMA St. Louis, Mo.), or SOD (100 U/mL), respectively.
# After incubation, mononuclear cells were pelleted by centrifugation, and total RNA was isolated with the RNeasy Protect Mini Kit (Qiagen, Stanford, Calif.) following the directions supplied by the manufacturer. RNA was eluted with 50 μL of RNase-free water.
# First strand cDNA synthesis was performed using random hexamers (GIBCO, BRL, Gaithesburg, Md.). 3 μg of total RNA isolated from human mononuclear cells were denatured at 95° C. and reverse transcribed at 40° C. for 1 hour using Superscript® II Rnase H-RT (GIBCO BRL, Gaithesburg Md.). Five μL of the RT product was used for the real-time PCR reaction.
# Primers and probe specific for the mu4 opiate receptor sequence were designed as follows using the software Primer Express® (Applied Biosystems). […] The Taqman® probe was constructed with the 5′ reporter dye 6-carboxyfluorescein and a 3′ quencher dye 6-carboxy-tetramethyl-rhodoamine. The 2× universal master mix (Applied Biosystems) containing PCR buffer, MgCl2, dNTPs, and the thermal stable AmpliTaq Gold® DNA polymerase was used in the PCR reactions. In addition, 200 μM of reverse and forward primers, 100 μM Taqman® probe, 5 μL of RT product, and Rnase/DNase-free water were added to the master mix to a final volume of 50 μL. […] The PCR results were analyzed with the GeneAmp® 5700 SDS software (Applied Biosystems). […]
smiles,measurement,setting,value
"CC(=O)NC(C(=O)O)C(C)(C)SN=O (racemic) [SNAP, S-nitroso-N-acetyl-DL-penicillamine]",mu4 mRNA expression,"after 6 hours of treatment, p=0.029 vs control",8±5.6 relative mRNA level
same,mu4 mRNA expression,"after 24 hours of treatment, n=1",10.5 relative mRNA level
same,mu4 mRNA expression,"treated for 30 minutes, SOD 100 units/mL, nontreated cells 1.0",0.05 relative mRNA level
